From US20050070544A1, “1,2,5,10-tetrahydropyridazino{4,5-b}quinoline-1,10-diones and their use for the treatment of pain” (AstraZeneca AB, priority 2000, published 2005) come the findings set out here.

In series [1] the target is T1, NMDA receptor glycine site (Rattus norvegicus, UniProt P35439).
T1 construct: fresh brain tissue including cerebral cortex and hippocampus from male Sprague Dawley rats was homogenized; tissue Analytical Biological Services Inc; host or cells: rat brain membranes (cerebral cortex and hippocampus, male Sprague Dawley rats)
Description: Test A: Inhibition of binding of [3H]-MDL105,519. Here is the method: Test A: Inhibition of Binding of [^3H]-MDL105,519:
Binding of compounds to the NMDA receptor glycine site may be assessed by measuring the ability of test compounds to inhibit the binding of tritiated MDL105,519 to brain membranes bearing the receptor.
Rat Brain Membranes: The rat brain membranes used in the experiments were obtained from Analytical Biological Services Inc., and were prepared substantially in accordance with the method of B. M. Baron et al., J. Pharmacol. Exp. Ther. 250, 162 (1989). Briefly, fresh brain tissue including cerebral cortex and hippocampus from male Sprague Dawley rats was homogenized in 0.32 M sucrose and centrifuged at low speed to separate cellular membranes from other cellular components. The membranes were then washed 3 times using deionized water, followed by treatment with 0.04% Triton X-100. Finally, membranes were washed six times in 50 mM Tris citrate buffer, pH 7.4, and frozen at −80° C. until use.
[^3]MDL105,519 (72 Ci/mmol) was purchased from Amersham. Cold MDL105,519 was purchased from Sigma/RBI. Binding assays were performed substantially in accordance with the protocol of B. M. Baron et al., J. Pharmacol. Exp. Ther. 279, 62 (1996), as follows. On the day of the experiment, brain membranes were thawed at room temperature and suspended in 50 mM tris acetate buffer, pH 7.4 (“TAB”). Seventy-five micro grams per milliliter protein (by using the BioRad dye) were used for competition binding. The experiments were carried out using 96-well plates. Membranes were incubated with […] of compounds of various concentrations and 1.2 nM [^3H]MDL105,519 for 30 minutes at room temperature in a total volume of 250 μL. Non specific binding was determined by using 100 μM of unlabeled MDL105,519. The unlabeled MDL105,519 and compounds were dissolved as 12.5 mM stock solutions in DMSO. Final DMSO concentration in each well was kept below 1%, which concentration was found not to alter the binding results. After incubation, unbound [^3H]MDL105,519 was removed by filtration onto GF/B Unifilter plates using a Packard harvester. Filters were washed four times with ice cold TAB (total of 1.2 mL buffer). The plates were dried overnight at room temperature and bound radioactivity was measured on a Packard TopCount after the addition of 45 μL per well of the MICROSCINT O.
Human Brain Membranes: Human brain membranes were obtained from Analytical Biological Services Inc., and assays were performed as described for rat membranes.
Data analysis: Data was analyzed using a Microsoft Excel spreadsheet and GraphPad Prizm software and potency of compounds is expressed as the Ki (nM).

Structures can show the parent of a compound that is named as a salt.

Broadly, the melting point is the temperature, or range, at which the solid turns liquid. In the case of `O=c1c2ccc(Cl)cc2[nH]c2c(O)nn(CC#Cc3ccncc3)c(=O)c12` (as salt: methanesulfonate) [Ex. 1, 7-Chloro-4-hydroxy-2-(3-(4-pyridyl)prop-2-ynyl)1,2,5,10-tetrahydropyridazino[4,5-b]quinoline-1,10-dione 1,3 methanesulfonate], the melting point lay in the range of 238 to 241 °C. The Ki is a dissociation constant, usually derived from enzyme kinetics or from competition with a known ligand. Low values mean a stronger hold on the target, high ones a looser hold on the target. Consider `O=c1c2ccc(Cl)cc2[nH]c2c(O)nn(CC#Cc3ccncc3)c(=O)c12` [Ex. 1, 7-Chloro-4-hydroxy-2-(3-(4-pyridyl)prop-2-ynyl)1,2,5,10-tetrahydropyridazino[4,5-b]quinoline-1,10-dione 1,3 methanesulfonate], for which, in series [1], the Ki was 67.6 nM. This counts as double-digit nanomolar. `O=c1c2ccc(Cl)cc2[nH]c2c(O)nn(CC#Cc3cccc(Cl)c3)c(=O)c12` [Ex. 2, 7-Chloro-4-hydroxy-2-[3-(3-chlorophenyl)prop-2-ynyl]-1,2,5,10-tetrahydropyridazino[4,5-b]quinoline-1,10-dione] had a melting point of 220 to 222 °C. Besides, in series [1], affinity was put at a Ki of 7.86 nM.

In turn, `O=c1c2ccc(Cl)cc2[nH]c2c(O)nn(CC#Cc3ccc(Cl)cc3)c(=O)c12` [Ex. 3, 7-Chloro-4-hydroxy-2-[3-(4-chlorophenyl)prop-2-ynyl]-1,2,5,10-tetrahydropyridazino[4,5-b]quinoline-1,10-dione] registered a melting point of 251 to 252 °C. In series [1], this compound registered a Ki of 86.6 nM. In turn, `O=c1c2ccc(Cl)cc2[nH]c2c(O)nn(CC#Cc3ccccc3Cl)c(=O)c12` [Ex. 4, 7-Chloro-4-hydroxy-2-[3-(2-chlorophenyl)prop-2-ynyl]-1,2,5,10-tetrahydropyridazino[4.5-b]quinoline-1.10-dione] displayed a melting point of 255 to 257 °C. Further, in series [1], the affinity, expressed as Ki, was 113 nM. In turn, `CS(=O)(=O)O.O=c1c2ccc(Cl)cc2[nH]c2c(O)nn(CC#Cc3cccnc3)c(=O)c12` [Ex. 5, 7-Chloro-4-hydroxy-2-(3-(3-pyridyl)prop-2-ynyl)-1,2,5,10-tetrahydropyridazino[4,5-b]quinoline-1,10-dione methanesulfonate] gave a melting point of 227 to 229 °C. Further, the affinity in series [1] corresponds to a Ki of 14 nM. In turn, `O=c1c2ccc(Cl)cc2[nH]c2c(O)nn(CC#Cc3ccc(Cl)nc3)c(=O)c12` [Ex. 6, 7-Chloro-2-[3-(6-chloro(3-pyridyl))prop-2-ynyl]-4-hydroxy-2,5-dihydropyridazino[4,5-b]quinoline-1,10-dione] came in with a Ki in series [1] of 106 nM.
